This note sets out measurements from patent US9975885B2, “Broad-spectrum non-covalent coronavirus protease inhibitors” (priority 2016, dated 2018).

A value given as a limit tells only on which side of the number the result lay.

The target in assay [1] is FIPV-3CL^pro (Feline coronavirus (strain FIPV WSU-79/1146) (FCoV), UniProt Q98VG9). The assay can be described thus: biochemical.
Assay [2] addresses PEDV-3CL^pro (Porcine epidemic diarrhea virus (strain CV777) (PEDV), UniProt P0C6Y4). The assay can be described thus: biochemical. To be noted: for inhibition at 100 µM: read-out: inhibition of PEDV-3CL^pro.
Assay [3] has as its target HKU1-3CL^pro (Human coronavirus HKU1 (isolate N1) (HCoV-HKU1), UniProt P0C6X2). The assay can be described thus: biochemical.
Assay [4] deals with OC43-3CL^pro (Human coronavirus OC43 (HCoV-OC43), UniProt P0C6X6). It counts as biochemical.
The target in assay [5] is SARS-3CL^pro (Severe acute respiratory syndrome coronavirus (SARS-CoV), UniProt P0C6X7). It counts as biochemical.
The target of assay [6] is HKU4-3CL^pro (Bat coronavirus HKU4 (BtCoV) (BtCoV/HKU4/2004), UniProt P0C6W3). It counts as biochemical.
In assay [7] the target is HKU5-3CL^pro (Bat coronavirus HKU5 (BtCoV) (BtCoV/HKU5/2004), UniProt P0C6W4). It is filed as biochemical.
Assay [8] deals with HKU9-3CL^pro (Bat coronavirus HKU9 (BtCoV) (BtCoV/HKU9), UniProt P0C6W5). It counts as biochemical.
The test system of assay [9] is Ten CoV 3CL^pro's (FIPV-, PEDV-, NL63-, HKU1-, OC43-, SARS-, HKU4-, HKU5-, HKU9-, IBV-3CL^pro). It counts as biochemical, coronaviruses (α-, β-, γ-CoV).
Assay [10] concerns the target IBV-3CL^pro (Avian infectious bronchitis virus (strain Beaudette) (IBV), UniProt P0C6Y1). It is filed as biochemical.
The target in assay [11] is NL63-3CL^pro (Human coronavirus NL63 (HCoV-NL63), UniProt P0C6X5). The assay can be described thus: biochemical.
Chain of NL63-3CL^pro (P0C6X5 2940-3242 limits assumed): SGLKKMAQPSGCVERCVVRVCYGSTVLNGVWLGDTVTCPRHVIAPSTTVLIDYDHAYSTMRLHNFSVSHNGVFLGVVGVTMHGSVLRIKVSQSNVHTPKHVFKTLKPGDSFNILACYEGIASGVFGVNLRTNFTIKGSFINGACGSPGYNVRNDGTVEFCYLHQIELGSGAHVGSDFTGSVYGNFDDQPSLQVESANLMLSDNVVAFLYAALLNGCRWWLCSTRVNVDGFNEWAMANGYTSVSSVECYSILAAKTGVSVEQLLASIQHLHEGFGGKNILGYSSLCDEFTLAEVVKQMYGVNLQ

Chain of HKU4-3CL^pro (P0C6W3 3292-3597 limits assumed): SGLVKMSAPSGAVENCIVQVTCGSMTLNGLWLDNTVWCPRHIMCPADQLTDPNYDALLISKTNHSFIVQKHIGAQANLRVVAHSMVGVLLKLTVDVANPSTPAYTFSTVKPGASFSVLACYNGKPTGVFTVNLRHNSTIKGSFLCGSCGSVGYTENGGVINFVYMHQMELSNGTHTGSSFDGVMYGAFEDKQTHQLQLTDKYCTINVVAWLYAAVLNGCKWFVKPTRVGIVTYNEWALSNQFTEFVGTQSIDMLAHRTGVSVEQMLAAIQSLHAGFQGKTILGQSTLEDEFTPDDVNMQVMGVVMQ
Chain of IBV-3CL^pro (P0C6Y1 2780-3086 limits assumed): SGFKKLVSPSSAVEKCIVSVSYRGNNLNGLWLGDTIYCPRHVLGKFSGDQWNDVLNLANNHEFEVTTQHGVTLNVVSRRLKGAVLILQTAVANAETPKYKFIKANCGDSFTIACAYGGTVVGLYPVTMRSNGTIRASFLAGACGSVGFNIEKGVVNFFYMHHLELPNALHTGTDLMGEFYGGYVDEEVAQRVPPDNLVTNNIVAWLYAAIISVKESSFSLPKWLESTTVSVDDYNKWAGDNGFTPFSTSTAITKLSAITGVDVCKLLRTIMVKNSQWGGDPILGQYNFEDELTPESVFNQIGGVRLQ
Chain of OC43-3CL^pro (P0C6X6 3247-3549 limits assumed): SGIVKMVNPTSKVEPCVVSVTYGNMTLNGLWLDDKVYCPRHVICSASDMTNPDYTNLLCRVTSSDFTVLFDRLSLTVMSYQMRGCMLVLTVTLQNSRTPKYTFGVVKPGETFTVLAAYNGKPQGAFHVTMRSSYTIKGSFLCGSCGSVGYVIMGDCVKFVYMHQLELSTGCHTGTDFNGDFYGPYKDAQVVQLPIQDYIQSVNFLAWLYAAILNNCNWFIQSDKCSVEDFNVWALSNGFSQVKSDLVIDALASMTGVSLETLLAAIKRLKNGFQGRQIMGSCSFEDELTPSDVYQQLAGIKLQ
Chain of PEDV-3CL^pro (P0C6Y4 2998-3299 limits assumed): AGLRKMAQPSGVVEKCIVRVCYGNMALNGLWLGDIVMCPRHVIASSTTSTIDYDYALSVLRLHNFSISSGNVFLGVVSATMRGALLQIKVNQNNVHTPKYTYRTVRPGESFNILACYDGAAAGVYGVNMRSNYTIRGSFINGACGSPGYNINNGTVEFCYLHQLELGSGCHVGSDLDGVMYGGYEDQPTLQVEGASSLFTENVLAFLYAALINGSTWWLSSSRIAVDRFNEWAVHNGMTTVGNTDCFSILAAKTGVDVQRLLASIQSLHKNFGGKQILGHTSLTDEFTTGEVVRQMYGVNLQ
Chain of FIPV-3CL^pro (Q98VG9 2904-3205 limits assumed): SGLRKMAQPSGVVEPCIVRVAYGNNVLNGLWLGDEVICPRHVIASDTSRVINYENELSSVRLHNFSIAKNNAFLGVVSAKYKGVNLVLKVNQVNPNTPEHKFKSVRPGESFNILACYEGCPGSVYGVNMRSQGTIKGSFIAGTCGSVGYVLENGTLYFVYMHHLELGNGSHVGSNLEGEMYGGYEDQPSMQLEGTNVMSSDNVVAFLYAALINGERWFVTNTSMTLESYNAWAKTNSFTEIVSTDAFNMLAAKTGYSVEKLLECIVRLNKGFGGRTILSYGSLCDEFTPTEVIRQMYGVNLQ
Chain of HKU5-3CL^pro (P0C6W4 3339-3644 limits assumed): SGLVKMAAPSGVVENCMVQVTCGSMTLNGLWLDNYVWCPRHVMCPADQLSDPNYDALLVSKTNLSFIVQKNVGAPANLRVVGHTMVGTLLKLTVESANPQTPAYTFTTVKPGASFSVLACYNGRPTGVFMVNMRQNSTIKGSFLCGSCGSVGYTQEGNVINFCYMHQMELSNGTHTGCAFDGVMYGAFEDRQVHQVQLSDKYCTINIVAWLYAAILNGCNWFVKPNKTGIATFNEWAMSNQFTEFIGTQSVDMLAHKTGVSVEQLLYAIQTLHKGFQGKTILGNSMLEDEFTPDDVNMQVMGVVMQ
Chain of HKU1-3CL^pro (P0C6X2 3335-3637 limits assumed): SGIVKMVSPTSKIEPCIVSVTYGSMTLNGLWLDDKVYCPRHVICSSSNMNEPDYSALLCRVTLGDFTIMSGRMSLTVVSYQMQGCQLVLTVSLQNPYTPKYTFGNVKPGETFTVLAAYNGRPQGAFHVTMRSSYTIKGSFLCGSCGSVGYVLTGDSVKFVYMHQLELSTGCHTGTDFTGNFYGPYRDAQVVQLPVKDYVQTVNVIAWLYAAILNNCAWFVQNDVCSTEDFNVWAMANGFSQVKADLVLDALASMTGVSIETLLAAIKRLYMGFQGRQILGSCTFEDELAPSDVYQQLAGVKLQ
Chain of HKU9-3CL^pro (P0C6W5 3104-3409 limits assumed): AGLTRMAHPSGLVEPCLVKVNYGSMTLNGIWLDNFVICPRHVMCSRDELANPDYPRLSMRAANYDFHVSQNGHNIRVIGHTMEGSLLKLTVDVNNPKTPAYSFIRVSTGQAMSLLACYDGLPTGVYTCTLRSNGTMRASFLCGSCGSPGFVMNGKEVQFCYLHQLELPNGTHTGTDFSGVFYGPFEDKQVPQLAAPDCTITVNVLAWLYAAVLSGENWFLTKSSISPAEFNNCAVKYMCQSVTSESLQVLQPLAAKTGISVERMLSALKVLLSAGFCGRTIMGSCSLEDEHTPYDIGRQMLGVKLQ

As to `CC(C)(C)NC(=O)C(c1cccnc1)N(C(=O)c1c[nH]cn1)c1ccc(C2CCC2)cc1` (stereo not drawn) [Compound 40, N-(2-(tert-butylamino)-2-oxo-1-(pyridin-3-yl)ethyl)-N-(4-cyclobutylphenyl)-1H-imidazole-4-carboxamide], the IC50 (usually the midpoint of a concentration-inhibition curve) in [1] was 27 ± 3.1 µM; in [2], 11.2 ± 1.5 µM; in assay [3], 6.6 ± 1.2 µM; in [4] it was 13.7 ± 1.3 µM; in assay [5], 9.9 ± 1.2 µM; in assay [6] it was 9.6 ± 0.7 µM. In addition, the IC50 in [7] turned out to be 8.7 ± 1.2 µM; in assay [8], 18.2 ± 2.2 µM. Besides, the “Gini Coefficient” value in [9] was 0.16. Further, in assay [9], the “Score (performance metric score)” value is reported as 3.6. The “number of 3CL^pro's inhibited” value in assay [9] is given as “eight of ten”.
For the molecule `CC(C)C(=O)Nc1ccc(N(C(=O)Cn2nnc3ccccc32)C(C(=O)NCc2ccccc2)c2cccc(F)c2)cc1` (stereo not drawn) [Compound 1P, reference compound], the IC50 was determined as 6.7 ± 0.7 µM in assay [1], 6.9 ± 0.9 µM in assay [4], 1.6 ± 0.2 µM in assay [5] and 1.2 ± 0.1 µM in [7]. In addition, the inhibition at 100 µM in assay [2] and in assay [3] (read-out: inhibition of HKU1-3CL^pro) was no more than 50% in each case. Further, the “inhibition of γ-CoV IBV-3CL^pro” value in assay [10] was “no compound, including the parent compounds 1P, 2P, and 3P, was found to be capable of inhibiting”. Moreover, the “Gini Coefficient” value in assay [9] worked out at 0.31. The “Score (performance metric score)” value in assay [9] came out at 5.7.
As for `CC(C)(C)CNC(=O)C(c1cccnc1)N(C(=O)c1c[nH]cn1)c1ccc(C(C)(C)C)cc1` (stereo not drawn) [Compound 44, N-(4-(tert-butyl)phenyl)-N-(2-(neopentylamino)-2-oxo-1-(pyridin-3-yl)ethyl)-1H-imidazole-4-carboxamide], the concentration for half-maximal inhibition (IC50) worked out at 12.5 ± 0.8 µM in assay [1]; 1.4 ± 0.1 µM in assay [2]; 8.2 ± 0.5 µM in assay [11]; 9 ± 0.8 µM in assay [3]; 15.6 ± 1 µM in [4]; 6.3 ± 0.5 µM in [5]. Moreover, the IC50 in assay [6] was determined as 4.2 ± 0.2 µM; in [7] it was 3.6 ± 0.3 µM; in [8] it was 9.1 ± 0.8 µM.
For the molecule `CC(C)(C)NC(=O)C(c1cccnc1)N(C(=O)c1c[nH]cn1)c1ccc(C(C)(C)C)cc1` (stereo not drawn) [Compound 3P, reference compound], the “inhibition of γ-CoV IBV-3CL^pro” value in [10] was “no compound, including the parent compounds 1P, 2P, and 3P, was found to be capable of inhibiting”. Further, in [9], the “Gini Coefficient” value worked out at 0.13 and the “Score (performance metric score)” value was 2.7.
Take `CC(C)(C)OC(=O)CNC(=O)C(c1ccsc1)N(C(=O)Cn1nnc2ccccc21)c1ccc(NC(=O)C2CC2)cc1` (stereo not drawn) [Compound 64, tert-butyl (2-(2-(1H-benzo[d][1,2,3]triazol-1-yl)-N-(4-(cyclopropanecarboxamido)phenyl)acetamido)-2-(thiophen-3-yl)acetyl)glycinate]: the IC50 in assay [1] came out at 11.7 ± 1.2 µM; in assay [2] it was 8.7 ± 1.4 µM; in assay [11] it was 8.7 ± 0.8 µM; in [3], 6.5 ± 0.9 µM; in assay [4], 4.5 ± 0.3 µM; in [5], 6.3 ± 0.8 µM. The IC50 in [6] amounted to 2.1 ± 0.2 µM; in assay [7], 2 ± 0.2 µM. Besides, the “number of 3CL^pro's inhibited” value in assay [9] is given as “eight of the ten”.
With `CC(C)(C)c1ccc(N(C(=O)c2c[nH]cn2)C(C(=O)NCc2ccccc2)c2cccnc2)cc1` (stereo not drawn) [Compound 48, N-(2-(benzylamino)-2-oxo-1-(pyridin-3-yl)ethyl)-N-(4-(tert-butyl)phenyl)-1H-imidazole-4-carboxamide], the IC50 in [1] amounted to 19 ± 1.7 µM; in [2] it was 3.4 ± 0.4 µM; in assay [11], 26.4 ± 4.2 µM; in [3], 8 ± 1.5 µM; in assay [4], 46.5 ± 8 µM; in assay [5], 6.6 ± 0.8 µM. Besides, the IC50 in assay [6] worked out at 26.1 ± 2.1 µM; in assay [7], 24.8 ± 2.9 µM; in assay [8], 40.4 ± 8.7 µM. In addition, in assay [9], the “Gini Coefficient” value was found to be 0.17. For the same molecule, the “Score (performance metric score)” value in assay [9] was 3.5.
Consider `CC(C)(C)NC(=O)C(c1ccsc1)N(C(=O)Cn1nnc2ccccc21)c1ccc(NC(=O)C2CC2)cc1` (stereo not drawn) [Compound 2P, reference compound], for which the inhibition at 100 µM in assay [1] (read-out: inhibition of FIPV-3CL^pro), in [2] and in assay [11] (read-out: inhibition of NL63-3CL^pro) was no more than 50% each time. The IC50 in assay [4] is 24.4 ± 3.5 µM; in [6], 3.8 ± 0.3 µM; in [7] it was 3.5 ± 0.5 µM. Besides, in assay [10], the “inhibition of γ-CoV IBV-3CL^pro” value is “no compound, including the parent compounds 1P, 2P, and 3P, was found to be capable of inhibiting”. In addition, in [9], the “Gini Coefficient” value was 0.29. Moreover, the “Score (performance metric score)” value in assay [9] was determined as 8.5.
For the molecule `CC(C)Cc1ccc(N(C(=O)c2c[nH]cn2)C(C(=O)NC(C)(C)C)c2cccnc2)cc1` (stereo not drawn) [Compound 38, N-(2-(tert-butylamino)-2-oxo-1-(pyridin-3-yl)ethyl)-N-(4-isobutylphenyl)-1H-imidazole-4-carboxamide], the IC50 was 61.1 ± 13.9 µM in assay [1]; 15.5 ± 1.8 µM in assay [2]; 15.4 ± 1.5 µM in assay [3]; 24.4 ± 3.1 µM in assay [4]; 7 ± 0.6 µM in assay [5]; 7.7 ± 0.7 µM in [6]. Further, the IC50 in [7] was found to be 10.9 ± 0.9 µM; in assay [8], 18 ± 3.3 µM. In addition, in assay [11], the “inhibition of NL63-3CL^pro” value was “not tolerated”. Further, in assay [9], the “Gini Coefficient” value was 0.21. Further, the “Score (performance metric score)” value in [9] is listed as 4.5.
As for `CC(C)(C)c1ccc(N(C(=O)c2c[nH]cn2)C(C(=O)NC2CCCC2)c2cccnc2)cc1` (stereo not drawn) [Compound 47, N-(4-(tert-butyl)phenyl)-N-(2-(cyclopentylamino)-2-oxo-1-(pyridin-3-yl)ethyl)-1H-imidazole-4-carboxamide], the half-inhibitory concentration (IC50) came out at 6.9 ± 0.5 µM in assay [1]; 0.7 ± 0.03 µM in assay [2]; 6.3 ± 0.5 µM in assay [11]; 3.4 ± 0.4 µM in [3]; 7.7 ± 0.8 µM in assay [4]; 1.7 ± 0.2 µM in assay [5]. Also, the IC50 in assay [6] stood at 1.9 ± 0.1 µM; in [7] it was 2.5 ± 0.2 µM; in [8] it was 6.4 ± 0.5 µM.
For `CC(C)CNC(=O)C(c1cccnc1)N(C(=O)c1c[nH]cn1)c1ccc(C(C)(C)C)cc1` (stereo not drawn) [Compound 43, N-(4-(tert-butyl)phenyl)-N-(2-(isobutylamino)-2-oxo-1-(pyridin-3-yl)ethyl)-1H-imidazole-4-carboxamide], the IC50 was determined as 16.2 ± 1.3 µM in [1]; 1.6 ± 0.1 µM in assay [2]; 13.5 ± 0.8 µM in [11]; 5.8 ± 0.8 µM in assay [3]; 12.4 ± 1 µM in assay [4]; 5.9 ± 0.5 µM in [5]. Also, the IC50 was found to be 4.6 ± 0.3 µM in assay [6], 5.8 ± 0.8 µM in assay [7] and 10.5 ± 1.1 µM in assay [8].
